# Columns and labels:
# Fasciola hepatica = experiment: Test on sheep infected with Fasciola hepatica (count of liver flukes in the bile ducts after treatment); type: in vivo, Schafe; details: artificially infected sheep, single dose of suspension by stomach tube or rumen injection; 30 and 20 mg/kg Körpergewicht; necropsy 3-4 weeks after treatment
# Source text: Beispiel 16: Versuch an mit Fasciola hepatica infizierten Schafen
# (§1) Der Wirkstoff wird in Form einer Suspension mit einer Magensonde oder durch Pansen-Injektion Schafen verabreicht, die vorher mit Fasciola hepatica künstlich infiziert wurden. Pro Versuch resp. pro Dosis werden 3 Tiere verwendet. Jedes Tier wird mit nur einer einzigen Dosis behandelt.
# (§2) Eine erste Evaluierung erfolgt dadurch, dass die Anzahl der vor und nach der Behandlung im Kot der Schafe ausgeschiedenen Wurmeier verglichen werden.
# Drei bis vier Wochen nach der Behandlung werden die Schafe getötet und seziert. Die Auswertung erfolgt durch das Auszählen der nach der Behandlung in den Gallengängen zurückgebliebenen Leberegel. Gleichzeitig und gleichartig infizierte aber unbehandelte Schafe dienen als Kontrolle resp. Vergleich. Der Unterschied der in den beiden Gruppen festgestellten Anzahl von Leberegeln ergibt den Wirkungsgrad des geprüften Wirkstoffs.
# In diesem Versuch zeigen Wirkstoffe aus der Tabelle I bei Dosen von 30 und 20 mg/kg Körpergewicht stets eine mindestens 95%ige Wirksamkeit gegen Fasciola hepatica. Die Verbindungen Nr. 1, 2, 4, 5, 11, 12 und 13 zeigen jeweils vollständige Wirksamkeit (^= Abtötung 100 %).
# [1] = system: Nematoden wie Haemonchus concortus und Trichostrongylus colubriformis; experiment: Test on sheep infected with nematodes (worm count in the intestine after treatment); type: in vivo, Schafe; details: nematode-infected sheep, single dose; at each of the doses 20, 10, 5 and 2 mg/kg; necropsy 7-10 days after treatment
# Source text: Beispiel 14: Versuch an mit Nematoden wie Haemonchus concortus und Trichostrongylus colubriformis infizierten Schafen
# as §1, with “mit Nematoden wie Haemonchus concortus und Trichostrongylus colubriformis” for “mit Fasciola hepatica”, “werden 1 bis” for “werden”, “Jedes Schaf” for “Jedes Tier”
# as §2
# Sieben bis zehn Tage nach der Behandlung werden die Schafe getötet und seziert. Die Auswertung erfolgt durch Auszählung der nach der Behandlung im Darm zurückbleibenden Würmer. Gleichzeitig und gleichartig infizierte aber unbehandelte Schafe dienen als Kontrolle resp. Vergleich.
# Schafe, die mit einer Suspension eines Wirkstoffes aus der Tabelle I behandelt werden, zeigen im Vergleich zu unbehandelten, aber infizierten Vergleichsgruppen einen um mindestens 95 i reduzierten Nematodenbefall. Die Wirkungsdosis beträgt 20, 10, 5 und 2 mg/kg. Mit den Verbindungen Nr. 1, 2, 4, 11, 12 und 13 wird bei jeder der Dosen 100 % Wirkung erzielt.
SMILES,Wirksamkeit gegen Fasciola hepatica (Abtötung) (Fasciola hepatica),Wirkung [1]
CC(C)c1cc(Oc2ccc(C(F)(F)F)cc2)ccc1NC(=O)C1C(=O)N(C)C(=O)N(C)C1=O [compound 1],100%,100%
Cc1cc(Oc2ccc(C(F)(F)F)cc2)cc(C)c1NC(=O)C1C(=O)N(C)C(=O)N(C)C1=O [compound 2],100%,100%
Cc1cc(Oc2ccc(C(F)(F)F)cc2)ccc1NC(=O)C1C(=O)N(C)C(=O)N(C)C1=O [compound 4],100%,100%
C=CCN1C(=O)C(C(=O)Nc2ccc(Oc3ccc(C(F)(F)F)cc3)cc2C)C(=O)N(C)C1=O (stereo not shown) [compound 5],100%,–
Cc1cc(Oc2ccc(C(F)(F)F)cc2)cc(C)c1NC(=O)C1C(=O)N(C)C(=O)N(C2CC2)C1=O (stereo not shown) [compound 11],100%,100%
C=CCN1C(=O)C(C(=O)Nc2c(C)cc(Oc3ccc(C(F)(F)F)cc3)cc2C)C(=O)N(C)C1=O (stereo not shown) [compound 12],100%,100%
CC(C)c1cc(Oc2ccc(C(F)(F)F)cc2)ccc1NC(=O)C1C(=O)N(C)C(=O)N(C2CC2)C1=O (stereo not shown) [compound 13],100%,100%

# Reference: patent EP0102327A2, “Barbituric acid derivatives as anthelmintica” (CIBA-GEIGY AG, priority 1982, dated 1984)
